According to patent US20240226211A9, “SEAWEED EXTRACTS, ISOLATED COMPOUNDS, AND METHODS OF TREATMENT” (University of Florida Research Foundation, Incorporated, priority 2017, published 2024):

Assays:
zebrafish = assay: Phenotypic toxicity in zebrafish; format: in vivo, Danio rerio; settings: embryos and adults
[1] = system: PGE2 production in RAW264.7 cells; assay: PGE2 assay in RAW264.7 cells; format: cell-based, mouse; settings: RAW264.7, IFN-γ
Experimental: RAW264.7 cells were seeded into a 96 well format at 4×10^4 cells/well and incubated overnight at 37° C. Cells were treated with a solvent control (DMSO, 1%, v/v) or serial dilutions of isolated compounds or extracts for 1 h before the addition of IFN-γ (10 ng/mL). […] The experiment was performed using the standard manufacturer's protocol.

Keap1 (Cys-151) = target: T1, Keap1 (Cys-151) (Homo sapiens, UniProt Q14145); assay: Keap1 Cys-151 reactivity in co-transfected HEK293 cells; format: cell-based; settings: for Keap1-associated Cul3 / Keap1-Cul3 interaction: Keap1-CBD and HA-Cul3
T1 construct: expressed in transfected cells; host or cells: HEK293
T1 sequence (Q14145 whole entry): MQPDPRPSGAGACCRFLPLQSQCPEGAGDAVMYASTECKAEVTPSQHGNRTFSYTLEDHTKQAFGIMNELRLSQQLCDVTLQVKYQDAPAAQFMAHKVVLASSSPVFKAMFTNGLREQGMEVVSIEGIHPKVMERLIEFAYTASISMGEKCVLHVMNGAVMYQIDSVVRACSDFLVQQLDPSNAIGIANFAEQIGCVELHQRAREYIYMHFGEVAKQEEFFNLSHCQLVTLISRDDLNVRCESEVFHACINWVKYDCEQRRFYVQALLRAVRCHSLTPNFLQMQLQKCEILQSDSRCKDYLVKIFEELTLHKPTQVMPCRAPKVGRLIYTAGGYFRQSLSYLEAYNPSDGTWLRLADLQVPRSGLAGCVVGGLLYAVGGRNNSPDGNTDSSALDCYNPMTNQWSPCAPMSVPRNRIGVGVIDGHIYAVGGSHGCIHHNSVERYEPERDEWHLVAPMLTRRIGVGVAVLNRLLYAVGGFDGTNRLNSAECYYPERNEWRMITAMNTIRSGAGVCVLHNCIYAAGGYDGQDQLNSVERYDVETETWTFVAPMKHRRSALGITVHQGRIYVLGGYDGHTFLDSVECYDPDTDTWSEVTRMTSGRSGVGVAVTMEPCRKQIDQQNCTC
Description: The ARE-luciferase reporter construct (ARE-luc) contains the core sequence of human NQO1-ARE1. […] Mol. Cell. […] The Keap1-CBD plasmid carries the entire open reading frame (ORF) of human Keap1 fused to the chitin binding domain (CBD) of the Bacillus circulans chitinase A1 gene upstream of the Keap1 stop codon. Oligonucleotide-directed mutagenesis was used to generate the Keap1-C151S-CBD and Keap1-C288S-CBD plasmids. The HA-Cul3 plasmid was constructed by fusing an N-terminal hemagglutinin (HA) tag with a cDNA sequence coding for amino acids 1-380 of human Cul3 gene. The Gal4-Neh2 expression vector contains the codons for the first 97 amino acids (Neh2 domain) of human Nrf2 fused to the ORF of the Gal4 DNA-binding domain
The reactivity at the amino acid level of KEAP1 was then investigated. […] In order to evaluate specific cysteine residues which may be alkylated in the presence of cymopols, HEK293 cells were co-transfected with either a mock plasmid, a wild-type Keap1-CBD, or a Keap1-C151S-CBD and HA-Cul3 (to evaluate Cul3 binding inhibition upon cymopol addition), HA-Nrf2 (to evaluate Nrf2-Keap1 interactions), or Gal4-Neh2 and HA-Ub (to evaluate ubiquitination patterns of Nrf2).

Cox2 = Cox2 transcript levels in RAW264.7 macrophage cells; format: cell-based, mouse; settings: 10 μM Compound 1, IFN-γ
Experimental: The RNeasy Mini Kit (Qiagen) was used to collect total RNA from cells, while for mouse tissue, TRIzol reagent (Invitrogen) was used. In each case, total RNAs (2 μg) were reverse-transcribed into cDNAs, which were used as templates for TaqMan gene expression assay (Applied Biosystems) and detected using the 7300 Real-Time PCR System (Applied Biosystems). Each qPCR sample was tested in triplicate as a 25 μL total reaction volume (12.5 μL of Taqman 2× universal master mix, 1.25 μL of a 20× TaqMan gene expression assay probe, 1 μL of the above cDNA, and 10.25 μL of RNase-free sterile water). The qPCR method was designed as following: 50° C. for 2 min, 95° C. for 10 min, and 40 cycles of 95° C. for 15 s and 60° C. for 1 min. Endogenous controls used included GAPDH for IMR-32 cells and β-actin to normalize for RAW264.7 cells and mouse tissues.
RAW264.7 cells were seeded in 6-well plates (8×10^5 cells/well) and incubated at 37° C. overnight.

[2] = system: neutrophil migration to cut site, Tg(mpx::GFP) zebrafish; assay: Zebrafish in vivo neutrophil migration assay; design: species or system Danio rerio; settings: relative to DMSO vehicle control
Experimental: Tg(mpx::GFP)^ill4 transgenic zebrafish larvae (6 dpf) were pre-treated in duplicate with a solvent control ((DMSO, 1%, v/v) or serial dilutions of the compound or extract in 12-well plate format with five larvae per well containing 1 mL E2 medium containing 1 mM Tris pH 7.4. After 3 hours, larvae were anesthetised with Tricaine and tailfins were amputated using sharp blades to induce the migration of neutrophils. The larvae were then placed into fresh wells to be post-treated for an additional 3 hours. A fluorescence stereomicroscope was used to count the number of neutrophils that migrated to the site of injury. The assay was performed in triplicate to determine statistical significance.
For in vivo evaluation, a previously reported neutrophil migration assay in the model organism, Danio rerio, was used [Wang X, et al. (2014) Inhibitors of neutrophil recruitment identified using transgenic zebrafish to screen a natural product library. Dis Model Mech 7(1):163-169]. […] The fish were then quickly transferred into fresh media containing the treatments for an additional 3 h before the GFP-tagged neutrophils were counted under the fluorescent microscope. […]

CC(C)=CCC/C(C)=C/Cc1cc(O)c(Br)cc1O [Compound 1, (E)-2-bromo-5-(3,7-dimethylocta-2,6-dien-1-yl)benzene-1,4-diol]
toxicity in zebrafish (zebrafish): demonstrate toxicities at fairly low concentrations | production of pro-inflammatory PGE2 [1]: effectively reduced the production | Keap1-associated Cul3 / Keap1-Cul3 interaction (Keap1 (Cys-151)): increase binding of Keap1-Cul3 interaction | Keap1-associated Cul3 / Keap1-Cul3 interaction (Keap1 (Cys-151); listed as compound 1): reduced | dimerization of Keap1 (Keap1 (Cys-151); Keap1-CBD and HA-Nrf2, dependent on Cys-151): increase dimerization of Keap1 | Neh2 ubiquitination (Keap1 (Cys-151); wild-type Keap1, Gal4-Neh2 and HA-Ub, preliminary data): less Neh2 ubiquitination | levels of Neh2 (Keap1 (Cys-151); wild-type Keap1, preliminary data): higher levels of Neh2 | reduction of Cox2 transcript levels (Cox2): 90% | number of neutrophils at the cut site [2]: decrease of neutrophils
